Holding throughout (assay): Biochemical Assay
Experiment [1] deals with GTPase NRas [G12C] (Homo sapiens, UniProt P01111, G12C).
For experiment [2], the target named is GTPase KRas [G12C] (Homo sapiens, UniProt P01116, G12C). An excerpt:
(§1) The purpose of this biochemical assay is to measure the ability of test compounds to covalently label nucleotide-loaded K-Ras isoforms. […] Analysis of raw data may be carried out using Waters MassLynx MS software, with % bound calculated from the deconvoluted protein peaks for labeled and unlabeled K-Ras.

Experiment [3] concerns the target GTPase KRas [G13C] (Homo sapiens, UniProt P01116, G13C).
Excerpt: as §1

The target of experiment [4] is GTPase NRas [Q61R] (Homo sapiens, UniProt P01111, Q61R).
Sequence of GTPase NRas [Q61R] (P01111 whole entry Q61R): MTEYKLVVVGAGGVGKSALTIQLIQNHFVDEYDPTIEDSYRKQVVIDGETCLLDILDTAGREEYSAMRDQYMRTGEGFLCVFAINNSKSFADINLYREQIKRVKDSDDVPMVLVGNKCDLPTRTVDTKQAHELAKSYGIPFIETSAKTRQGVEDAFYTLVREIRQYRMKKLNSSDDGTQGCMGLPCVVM

This note sets out measurements from BindingDB's records for patent US11566007 (Revolution Medicines, 2023).

For orientation: IC50 means the midpoint of a concentration-inhibition curve. A high value points to weaker potency in that assay.

Sequence of GTPase NRas [G12C] (P01111 whole entry G12C): as the sequence (P01111 whole entry Q61R) above, with G12C, R61Q counted along it
Sequence of GTPase KRas [G13C] (P01116 whole entry G13C): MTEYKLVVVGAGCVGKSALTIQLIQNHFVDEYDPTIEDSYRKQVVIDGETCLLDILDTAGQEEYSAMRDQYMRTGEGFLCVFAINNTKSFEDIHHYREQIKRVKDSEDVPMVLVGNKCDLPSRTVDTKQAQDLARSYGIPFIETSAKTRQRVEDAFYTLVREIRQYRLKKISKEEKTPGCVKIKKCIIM
Sequence of GTPase KRas [G12C] (P01116 whole entry G12C, canonical isoform): as the sequence (P01116 whole entry G13C) above, with G12C, C13G counted along it

`C=CC(=O)N1CC[C@H](C(=O)N(C)[C@H](C(=O)NC2C[C@@H]3CN(CCO3)c3ccc4c(c3)c(c(-c3cccnc3COC)n4CC)CC(C)(C)COC(=O)[C@@H]3CCCN(N3)C2=O)C(C)C)C1` (stereo not given in full) [US11566007, Example A318] had an IC50 in experiment [1] of over 10000 nM. As to `CCn1c(-c2cccnc2[C@H](C)OC)c2c3cc(ccc31)-c1cc(O)cc(c1)C[C@H](NC(=O)[C@H](C(C)C)N(C)C(=O)c1nc(NC(=O)/C=C/CN(C)C)cs1)C(=O)N1CCC[C@H](N1)C(=O)OCC(C)(C)C2` [US11566007, Example A258], the concentration for half-maximal inhibition (IC50) entry in experiment [1] and in experiment [2] was “in the range around 550 nM” in each case.

As to `CCn1c(-c2ccccc2CN(C)C)c2c3cc(ccc31)-c1cc(O)cc(c1)C[C@H](NC(=O)[C@H](C(C)C)N(C)C(=O)c1ccc(NC(=O)/C=C/CN(C)C)cn1)C(=O)N1CCC[C@H](N1)C(=O)OCC(C)(C)C2` [US11566007, Example A46], the concentration for half-maximal inhibition (IC50) result is “in the range around 55 nM” in experiment [3] and “in the range around 550 nM” in experiment [2]. In the case of `C=CC(=O)N1CC[C@H](C(=O)N(C)[C@H](C(=O)N[C@H]2Cc3cc(O)cc(c3)-c3ccc4c(c3)c(c(-c3ccc5c(c3)OCCN5C)n4CC)CC(C)(C)COC(=O)[C@@H]3CCCN(N3)C2=O)C(C)C)C1` [US11566007, Example A50], the values for the IC50 in experiment [4] and in experiment [2] were over 10000 nM and “in the range around 550 nM”, respectively. With `C=CC(=O)N1C[C@H](C)[C@H](C(=O)N(C)[C@H](C(=O)N[C@H]2Cc3cc(O)cc(c3)-c3ccc4c(c3)c(c(-c3ccccc3CCOC)n4CC)CC(C)(C)COC(=O)[C@@H]3CCCN(N3)C2=O)C(C)C)C1` [US11566007, Example A41], the IC50 result in experiment [3] is “in the range around 5500 nM”. In the case of `C=CC(=O)N1CC[C@H](C(=O)N(C)[C@H](C(=O)N[C@H]2Cc3nc(cs3)-c3ccc4c(c3)c(c(-c3cccnc3COC)n4CC)CC(C)(C)COC(=O)[C@@H]3CCCN(N3)C2=O)C(C)C)C1` [US11566007, Example A94], the IC50 entry in experiment [1] and in experiment [2] was “in the range around 550 nM” each time. Consider `C=CC(=O)N1CCCN(C(=O)N(C)[C@H](C(=O)N[C@H]2Cc3cc(O)cc(c3)-c3ccc4c(c3)c(c(-c3ccccc3CCOC)n4CC)CC(C)(C)COC(=O)[C@@H]3CCCN(N3)C2=O)C(C)C)CC1` [US11566007, Example A13], for which the IC50 entry in experiment [3] is “in the range around 550 nM”. With `C=CC(=O)N1CC[C@H](C(=O)N(C)[C@H](C(=O)N[C@H]2Cc3cc(O)cc(c3)-c3ccc4c(c3)c(c(-c3ccccc3N3CCOCC3)n4CC)CC(C)(C)COC(=O)[C@@H]3CCCN(N3)C2=O)C(C)C)C1` [US11566007, Example A26], the IC50 in experiment [4] was over 10000 nM; in experiment [2] it was “in the range around 550 nM”. `CCn1c(-c2cnccc2COC)c2c3cc(ccc31)-c1cc(O)cc(c1)C[C@H](NC(=O)[C@H](C(C)C)N(C)C(=O)[C@H]1CCN(C(=O)/C=C/CN(C)C)C1)C(=O)N1CCC[C@H](N1)C(=O)OCC(C)(C)C2` [US11566007, Example A87]: in experiment [3], the 50% inhibitory concentration (IC50) result was “in the range around 550 nM”.

As to `C=CC(=O)N1CC[C@H](C(=O)N(C)[C@H](C(=O)N[C@H]2Cc3cc(O)cc(c3)-c3ccc4c(c3)c(c(-c3cccnc3N3CC(OC)C3)n4CC)CC(C)(C)COC(=O)[C@@H]3CCCN(N3)C2=O)C(C)C)C1` [US11566007, Example A60], the results for the IC50 in experiment [4] and in experiment [2] were over 10000 nM and “in the range around 550 nM”, respectively. As for `C=CC(=O)N1CC[C@H](C(=O)N(C)[C@H](C(=O)N[C@H]2Cc3cc(O)cc(c3)-c3ccc4c(c3)c(c(-c3c(CCOC)cccc3OC)n4CC)CC(C)(C)COC(=O)[C@@H]3CCCN(N3)C2=O)C(C)C)C1` [US11566007, Example A80], the concentration for half-maximal inhibition (IC50) in experiment [4] was over 10000 nM; in experiment [2], “in the range around 550 nM”. In the case of `C=CC(=O)N1CC[C@H](C(=O)N(C)[C@H](C(=O)N[C@H]2Cc3cc(N)cc(c3)-c3ccc4c(c3)c(c(-c3ccccc3COC)n4CC)CC(C)(C)COC(=O)[C@@H]3CCCN(N3)C2=O)C(C)C)C1` [US11566007, Example A42], in experiment [2], the IC50 result is “in the range around 550 nM”. For the molecule `C=CC(=O)N1CC[C@H](C(=O)N(C)[C@H](C(=O)N[C@H]2Cc3cc(O)cc(c3)-c3ccc4c(c3)c(c(-c3ccccc3CCOC)n4CC)CC(C)(C)COC(=O)[C@@H]3CCCN(N3)C2=O)C2CCOCC2)C1` [US11566007, Example A6], the 50% inhibitory concentration (IC50) entry in experiment [2] is “in the range around 550 nM”. In the case of `C=CC(=O)N1CCC(F)(C(=O)N(C)[C@H](C(=O)N[C@H]2Cc3cc(O)cc(c3)-c3ccc4c(c3)c(c(-c3ccccc3CCOC)n4CC)CC(C)(C)COC(=O)[C@@H]3CCCN(N3)C2=O)C(C)C)CC1` [US11566007, Example A11], the concentration for half-maximal inhibition (IC50) entry in experiment [2] was “in the range around 550 nM”. For the molecule `C=CC(=O)N1CC[C@H](C(=O)N(C)[C@H](C(=O)N[C@H]2Cc3cccc(c3)-c3ccc4c(c3)c(c(-c3ccccc3CCOC)n4CC)CC(C)(C)COC(=O)[C@@H]3CCCN(N3)C2=O)C(C)C)C1` [US11566007, Example A24], the half-inhibitory concentration (IC50) result in experiment [1] was “in the range around 5500 nM”. Consider `CCn1c(-c2cccnc2COC)c2c3cc(ccc31)-c1cc(O)cc(c1)C[C@H](NC(=O)[C@H](C(C)C)N(C)C(=O)[C@H]1CCN(C(=O)C#CCN3CCOCC3)C1)C(=O)N1CCC[C@H](N1)C(=O)OCC(C)(C)C2` [US11566007, Example A95], for which the IC50 in experiment [1] and in experiment [2] was under 10 nM throughout. As for `C=CC(=O)N1CC[C@H](C(=O)N(C)[C@H](C(=O)N[C@H]2Cc3cc(O)cc(c3)-c3ccc4c(c3)c(c(-c3cncc(CN(C)C)c3)n4CC)CC(C)(C)COC(=O)[C@@H]3CCCN(N3)C2=O)C(C)C)C1` [US11566007, Example A73], the half-inhibitory concentration (IC50) result in experiment [2] was “in the range around 550 nM”. As to `C=CC(=O)N1CC[C@H](C(=O)N(C)[C@H](C(=O)N[C@H]2CC3=NN=C(O3)c3ccc4c(c3)c(c(-c3cccnc3[C@H](C)OCC)n4CC(F)(F)F)CC(C)(C)COC(=O)[C@@H]3CCCN(N3)C2=O)C(C)C)C1` [US11566007, Example A424], the IC50 entry in experiment [1] was “in the range around 550 nM”; in experiment [3] it was “in the range around 5500 nM”; in experiment [2], “in the range around 550 nM”. Take `C=CC(=O)N1CCN(C(=O)N(C)[C@H](C(=O)N[C@H]2Cc3cc(O)cc(c3)-c3ccc4c(c3)c(c(-c3ccccc3CCOC)n4CC)CC(C)(C)COC(=O)[C@@H]3CCCN(N3)C2=O)C(C)C)CC1` [US11566007, Example A18]: in experiment [3], the IC50 result was “in the range around 550 nM”. Consider `C=CC(=O)N1CC[C@H](C(=O)N(C)[C@H](C(=O)N[C@H]2Cc3cc(O)cc(c3)-c3ccc4c(c3)c(c(-c3ccc(CN5CCCC5)cc3)n4CC)CC(C)(C)COC(=O)[C@@H]3CCCN(N3)C2=O)C(C)C)C1` [US11566007, Example A10], for which, in experiment [2], the IC50 entry is “in the range around 550 nM”. Still for that read-out and setting: as for `C=CC(=O)N1CC[C@H](C(=O)N(C)[C@H](C(=O)N[C@H]2Cc3cc(O)cc(c3)-c3ccc4c(c3)c(c(-c3cccnc3COC)n4C)CC(C)(C)COC(=O)[C@@H]3CCCN(N3)C2=O)C(C)C)C1` [US11566007, Example A66], the entry is “in the range around 550 nM”; as for `C=CC(=O)N1CC[C@H](C(=O)N(C)[C@H](C(=O)N[C@H]2Cc3cc(OC(=O)CN)cc(c3)-c3ccc4c(c3)c(c(-c3ccccc3CCOC)n4CC)CC(C)(C)COC(=O)[C@@H]3CCCN(N3)C2=O)C(C)C)C1` [US11566007, Example A8], “in the range around 550 nM”. On the same count and under the same terms, the value for `C=CC(=O)N1CC[C@@]2(CCN([C@H](C(=O)N[C@H]3Cc4cc(O)cc(c4)-c4ccc5c(c4)c(c(-c4ccccc4CCOC)n5CC)CC(C)(C)COC(=O)[C@@H]4CCCN(N4)C3=O)C(C)C)C2=O)C1` [US11566007, Example A68] was “in the range around 550 nM”. Regarding `CCn1c(-c2ccccc2CN(C)C)c2c3cc(ccc31)-c1cc(O)cc(c1)C[C@H](NC(=O)[C@H](C(C)C)N(C)C(=O)c1ccc(NC(=O)/C=C/CN(C)C)cc1)C(=O)N1CCC[C@H](N1)C(=O)OCC(C)(C)C2` [US11566007, Example A49], the IC50 result in experiment [3] is “in the range around 550 nM”.

As to `C=CC(=O)N1CC[C@H](C(=O)N(C)[C@H](C(=O)N[C@H]2Cc3cc(O)cc(c3)-c3ccc4c(c3)c(c(-c3cccc(CN(C)C)c3)n4CC)CC(C)(C)COC(=O)[C@@H]3CCCN(N3)C2=O)C(C)C)C1` [US11566007, Example A30], the IC50 result in experiment [2] was “in the range around 550 nM”. In experiment [3], `CCn1c(-c2cccnc2COC)c2c3cc(ccc31)-c1cc(O)cc(c1)C[C@H](NC(=O)[C@H](C(C)C)N(C)C(=O)C1CN(C(=O)C#CCN(C)C)C1)C(=O)N1CCC[C@H](N1)C(=O)OCC(C)(C)C2` [US11566007, Example A97] gave an IC50 of under 10 nM. As for `C=CC(=O)N1CC[C@H](C(=O)N(C)[C@H](C(=O)N[C@H]2Cc3cc(O)cc(c3)-c3ccc4c(c3)c(c(-c3ccc(C5CCN(C)CC5)cc3)n4CC)CC(C)(C)COC(=O)[C@@H]3CCCN(N3)C2=O)C(C)C)C1` [US11566007, Example A39], the half-inhibitory concentration (IC50) result in experiment [2] is “in the range around 550 nM”. Still for that read-out and setting: the value for `C=CC(=O)N1CC[C@H](C(=O)N(C)[C@H](C(=O)N[C@H]2Cc3cc(O)cc(c3)-c3ccc4c(c3)c(c(-c3cncc(C#N)c3)n4CC)CC(C)(C)COC(=O)[C@@H]3CCCN(N3)C2=O)C(C)C)C1` [US11566007, Example A62] was “in the range around 550 nM”.

As to `CCn1c(-c2cnccc2COC)c2c3cc(ccc31)-c1cc(O)cc(c1)C[C@H](NC(=O)[C@H](C(C)C)N(C)C(=O)[C@H]1CCN(C(=O)C#CCN(C)C)C1)C(=O)N1CCC[C@H](N1)C(=O)OCC(C)(C)C2` [US11566007, Example A88], the half-maximal inhibitory concentration (IC50) in experiment [1] is under 10 nM. As for `C=CC(=O)N1CC[C@H](C(=O)N(C)[C@H](C(=O)N[C@H]2Cc3cc(O)cc(c3)-c3ccc4c(c3)c(c(-c3cccnc3COC)n4CC)CC(C)(C)COC(=O)[C@@H]3CCCN(N3)C2=O)C2CCCC2)C1` [US11566007, Example A55], in experiment [2], the half-maximal inhibitory concentration (IC50) result was “in the range around 55 nM”.
